From patent publication US20100040568A1, “Steroidal compounds as melanogenesis modifiers and uses thereof” (SkinMedica, Inc., priority 2008, published 2010)

Key:
melan-a cells = test: Melanin assay in cultured murine melanocytes (melan-a); format: cell-based; conditions: 72 hours; for % of control remaining @ 1 μM / % of control remaining @ 5 μM: melanin, melan-a cells
Experimental: The Spectrum Collection library consisting of 2000 drug compounds or natural products was screened to identify novel pigmentation inhibitors or stimulators in cultured murine melanocytes (melan-a). Compounds were dissolved in dimethylsulfoxide (DMSO) to a final concentration of 10 mM. Screening was performed with cultured melanocytes in 24-well plates followed by melanin assay (see below). A minimum change of 50% in melanin formation was established as significant for a pigmentation inhibitor or stimulator. DMSO was used as a negative control and the widely used depigmenting agent, hydroquinone, was used as a positive control on every plate. […] Melan-a cells were plated at 5×10^4 cells per well in 1 ml of culture media in 24-well plates the day before adding the library compounds. All compounds were added at the indicated final concentrations. Cells were harvested after 72 hours of incubation, and melanin assay was performed. For the primary and secondary screening, cells were harvested and dissolved in 200 μl of 2N NaOH in 20% DMSO at 70° C. A 180-μl aliquot of the resulting solution was measured for absorbance at 490 nm. Cells are harvested in extraction buffer (1% Triton X-100, 50 mM Tris, 2 mM EDTA, 150 mM NaCl, pH 7.5) containing a complete protease inhibitor cocktail (Roche). The lysates were centrifuged at 14,000 rpm for 10 minutes at 4° C. BCA protein assay kit (Pierce) was used to measure the protein concentrations of the supernatants, and bovine serum albumin was used as a standard. […] A 180-μl aliquot of the resulting solution was measured for absorbance at 490 nm. The melanin contents were normalized to the total amount of protein. The IC50 value for inhibition of cellular melanin synthesis for conessine was determined by culturing melan-a cells with various concentrations of conessine for 72 hours. Briefly, melan-a cells were plated at 5×10^4 cells per well in 1 ml of culture media in 24-well plates the day before adding conessine. Conessine was added at the indicated final concentrations. DMSO was used as a negative control. Cells were harvested after 72 hours of incubation, and spectrophotometric melanin assay was performed on cell pellets. The melanin contents were normalized to the total amount of protein. Cell viability was determined by using the CellTiter 96 aqueous nonradioactive cell proliferation assay. […] Licorice extract was tested under similar conditions as conessine for its ability to decrease melanin synthesis in melan-a cells (FIG. 11c). Melan-a cells were plated at 5×10^4 cells per well in 1 ml of culture media in 24-well plates the day before adding Licorice extract. 70% ethanol was used as control and the Licorice extract was diluted in cell culture media at the indicated concentrations. […] Cells were harvested after 72 hours of incubation, and spectrophotometric melanin assay was performed on cell pellets. The melanin contents were normalized to the total amount of protein. Cell viability was determined by using the CellTiter 96 aqueous nonradioactive cell proliferation assay.

UV-induced pigmentation = conditions: topical application of 0.5%; cited from earlier work

C[C@H]1C2CCC3[C@@H]4CC=C5C[C@@H](N(C)C)CC[C@]5(C)C4CC[C@@]32CN1C (mixture of isomers) [Compound 2, Con-5-enine, 3β-(dimethylamino)-, (±)-(8Cl) (Registry No: 14546-12-4)]
% of control remaining @ 1 μM (melan-a cells): 78.4 % of control | % of control remaining @ 5 μM (melan-a cells): 38.5 % of control

CC1C2CCC3C4CC=C5CC(N(C)C)CCC5(C)C4CCC32CN1C (stereo not drawn) [Compound 3, N,N-Dimethylcon-5-enin-3-amine]
% of control remaining @ 1 μM (melan-a cells): 59.2 % of control | % of control remaining @ 5 μM (melan-a cells): 28.4 % of control

CC1(C)C=Cc2c(ccc3c2OC[C@@H](c2ccc(O)cc2O)C3)O1 [glabridin]
inhibition of UV-induced pigmentation (UV-induced pigmentation): can inhibit the UV-induced pigmentation

Oc1ccc(O)cc1 [hydroquinone, reference compound]
effect on melanin synthesis in melan-a cells (melan-a cells; indicated concentrations): significantly inhibited melanogenesis in a dose-dependent manner
